Test results from ChEMBL document CHEMBL1795312, “Insights into the structural requirements of farnesyltransferase inhibitors as potential anti-tumor agents based on 3D-QSAR CoMFA and CoMSIA models” (Eur J Med Chem, 2008).

assay: Inhibition of farnesyltransferase

Row | Structure (SMILES) | pIC50
1 | Cc1ccccc1-c1cc(C(OCc2cccc3cccnc23)c2cncn2C)ccc1C#N (stereo not given) | 7.22
2 | Cn1cncc1C(OCc1ccc(C#N)c(N2CCOCC2)n1)c1ccc(C#N)c(-c2ccccc2C(F)(F)F)c1 (stereo not given) | 8.88
3 | Cn1cncc1C(OCc1ccc(C#N)cc1)c1ccc(C#N)c(-c2cccc3ccccc23)c1 (stereo not given) | 9.69
4 | Cn1cncc1C(OCc1ccc(C#N)c(N2CCC(CO)CC2)n1)c1ccc(C#N)c(-c2ccccc2C(F)(F)F)c1 (stereo not given) | 8.74
5 | N#Cc1ccc(COCc2cncn2Cc2ccc(Cl)cc2)c(-c2ccc3c(c2)OCO3)c1 | 8.08
6 | Cc1ccccc1-c1cc(C(OCc2cc(Cl)cc(Cl)c2)c2cncn2C)ccc1C#N (stereo not given) | 7.72
7 | Cc1ccccc1-c1cc(C(OCc2ccccc2C#N)c2cncn2C)ccc1C#N (stereo not given) | 7.2
8 | N#Cc1ccc(Cn2cncc2COCc2ccc(C#N)cc2-c2cccc3ccccc23)cc1 | 8.88
9 | Cn1cncc1C(OCc1ccc(C#N)c(NCC2CCCO2)n1)c1ccc(C#N)c(-c2ccccc2C(F)(F)F)c1 (stereo not given) | 8.17
10 | N#Cc1ccc(OCc2cncn2Cc2ccc(C#N)c(-c3cccc4ccccc34)c2)cc1 | 9.49
11 | Cc1ccccc1-c1cc(C(OCc2ccc(C(C)(C)C)cc2)c2cncn2C)ccc1C#N (stereo not given) | 7.06
12 | Cn1cncc1C(OCc1ccc(C#N)cc1)c1ccc(C#N)c(-c2ccccc2C=O)c1 (stereo not given) | 8.72
13 | N#Cc1ccc(Cn2cncc2COCc2ccc(C#N)cc2-c2ccc(OC(F)(F)F)cc2)cc1 | 9.18
14 | N#Cc1ccc(COCc2cncn2Cc2ccc(C#N)nc2)c(-c2cccc(Cl)c2)c1 | 8.52
15 | COC(=O)c1ccc(COC(c2ccc(C#N)c(-c3ccccc3C(F)(F)F)c2)c2cncn2C)nc1 (stereo not given) | 8.04
16 | Cc1ccccc1-c1cc(C(OCc2ccccc2)c2cncn2C)ccc1C#N (stereo not given) | 7.07
17 | Cc1cccc(-c2cc(C(OCc3ccc(C#N)cc3)c3cncn3C)ccc2C#N)c1C (stereo not given) | 8.67
18 | Cn1cncc1C(OCc1ccc(C#N)cc1)c1ccc(C#N)c(-c2ccccc2C(F)(F)F)c1 (stereo not given) | 9.09
19 | CC(=O)N1CCN(c2nc(COC(c3ccc(C#N)c(-c4ccccc4C(F)(F)F)c3)c3cncn3C)ccc2C#N)CC1 (stereo not given) | 8.58
20 | Cc1ccccc1-c1cc(C(OCc2c(Cl)cccc2Cl)c2cncn2C)ccc1C#N (stereo not given) | 7.09
21 | CC(C)(C)c1ccc(-c2cc(C#N)ccc2COCc2cncn2Cc2ccc(C#N)cc2)cc1 | 9.35
22 | COC(=O)c1cccc(COC(c2ccc(C#N)c(-c3ccccc3C)c2)c2cncn2C)c1 (stereo not given) | 7.21

Row | Structure (SMILES) | pIC50
23 | Cc1ccccc1-c1cc(C(OCc2ccc(Cl)c(Cl)c2)c2cncn2C)ccc1C#N (stereo not given) | 7.56
24 | N#Cc1ccc(Cn2cncc2COCc2ccc(C#N)cc2-c2ccc3ccccc3c2)cc1 | 9.03
25 | Cc1cccc(COC(c2ccc(C#N)c(-c3ccccc3C)c2)c2cncn2C)c1 (stereo not given) | 7.21
26 | CCOc1ccc(-c2cc(C#N)ccc2COCc2cncn2Cc2ccc(C#N)cc2)cc1 | 8.92
27 | Cn1cncc1C(OCc1ccc(C#N)c(NCc2cccc(F)c2)n1)c1ccc(C#N)c(-c2ccccc2C(F)(F)F)c1 (stereo not given) | 8
28 | Cc1ccccc1-c1cc(C(OCc2cnc(Cl)c(Cl)c2)c2cncn2C)ccc1C#N (stereo not given) | 7.82
29 | Cc1ccccc1-c1cc(C(OCc2nc(-c3ccc(Cl)cc3)cs2)c2cncn2C)ccc1C#N (stereo not given) | 7.53
30 | N#Cc1ccc(Cn2cncc2COCc2ccc(C#N)cc2-c2ccc(Cl)c(Cl)c2)cc1 | 9.43
31 | Cn1cncc1C(OCc1ccc(C#N)c(N2CCC[C@@H]2CO)n1)c1ccc(C#N)c(-c2ccccc2C(F)(F)F)c1 (stereo not given in full) | 8.69
32 | Cc1ccccc1-c1cc(C(OCc2cccc(Br)c2)c2cncn2C)ccc1C#N (stereo not given) | 7.88
33 | COc1cccc(-c2cc(C#N)ccc2COCc2cncn2Cc2ccc(Cl)cc2)c1 | 8.65
34 | Cc1ccccc1-c1cc(C(OCc2cccc3ccccc23)c2cncn2C)ccc1C#N (stereo not given) | 7.76
35 | Cc1ccccc1-c1cc(C(OCc2ccc(-c3ccccc3)cc2)c2cncn2C)ccc1C#N (stereo not given) | 7.88
36 | Cc1ccccc1-c1cc(C(OCc2ccc(C(C)C)cc2)c2cncn2C)ccc1C#N (stereo not given) | 7.29
37 | N#Cc1ccc(Cn2cncc2COCc2ccc(C#N)cc2-c2ccc3c(c2)OCO3)nc1 | 8.32
38 | Cc1ccccc1-c1cc(C(OCc2cccc(F)c2)c2cncn2C)ccc1C#N (stereo not given) | 7.42
39 | COc1ccc(-c2cc(C#N)ccc2COCc2cncn2Cc2ccc(C#N)cc2)cn1 | 8.11
40 | Cc1ccccc1-c1cc(C(OCc2ccc(C#N)cc2)c2cncn2C)ccc1C#N (stereo not given) | 8.39
41 | N#Cc1ccc(Cn2cncc2COCc2ccc(C#N)cc2-c2cccc(OC(F)(F)F)c2)cc1 | 9.3
42 | Cc1ccccc1-c1cc(C(OCc2cccc(Cl)c2)c2cncn2C)ccc1C#N (stereo not given) | 7.72
43 | Cc1ccccc1-c1cc(C(OCc2ccc([N+](=O)[O-])cc2)c2cncn2C)ccc1C#N (stereo not given) | 8.12
44 | Cc1ccccc1-c1cc(C(OCc2ccccc2F)c2cncn2C)ccc1C#N (stereo not given) | 7.15

Row | Structure (SMILES) | pIC50
45 | COc1cccc(-c2cc(C#N)ccc2COCc2cncn2Cc2ccc(C#N)cn2)c1 | 8.35
46 | N#Cc1ccc(Cn2cncc2COCc2ccc(C#N)cc2-c2cccc3c2OCO3)cc1 | 9.09
47 | CC(=O)c1ccc(-c2cc(C#N)ccc2COCc2cncn2Cc2ccc(C#N)cc2)cc1 | 8.88
48 | CC(=O)NC1CCN(c2nc(COC(c3ccc(C#N)c(-c4ccccc4C(F)(F)F)c3)c3cncn3C)ccc2C#N)C1 (stereo not given) | 8.76
49 | CC(=O)Nc1cccc(-c2cc(C#N)ccc2COCc2cncn2Cc2ccc(C#N)cc2)c1 | 7.88
50 | CN1CCN(c2nc(COC(c3ccc(C#N)c(-c4ccccc4C(F)(F)F)c3)c3cncn3C)ccc2C#N)CC1 (stereo not given) | 8.92
51 | Cn1cncc1C(OCc1ccc(F)c(C(F)(F)F)c1)c1ccc(C#N)c(-c2ccccc2C(F)(F)F)c1 (stereo not given) | 8.38
52 | N#Cc1ccc(Cn2cncc2COCc2ccc(C#N)cc2-c2ccc(C(F)(F)F)cc2)cc1 | 8.36
53 | Cn1cncc1C(OCc1ccc(C#N)c(N2CCCC(O)C2)n1)c1ccc(C#N)c(-c2ccccc2C(F)(F)F)c1 (stereo not given) | 8.88
54 | N#Cc1ccc(COCc2cncn2Cc2ccc(C#N)nc2)c(-c2ccc3c(c2)OCO3)c1 | 8.52
55 | Cc1ccc(-c2cc(C#N)ccc2COCc2cncn2Cc2ccc(C#N)cc2)cc1C | 9.22
56 | Cn1cncc1C(OCc1ccc(C#N)cc1)c1ccc(C#N)c(-c2ccccc2CO)c1 (stereo not given) | 8.25
57 | N#Cc1ccc(Cn2cncc2COCc2ccc(Cl)cc2-c2cccc(Cl)c2)cc1 | 9.2
58 | N#Cc1ccc(Cn2cncc2COCc2ccc(C#N)cc2-c2cccc(Cl)c2)nc1 | 8.76
59 | Cn1cncc1C(OCc1ccc(C#N)c(N2CCC(O)C2)n1)c1ccc(C#N)c(-c2ccccc2C(F)(F)F)c1 (stereo not given) | 8.45
60 | COc1ccc(COC(c2ccc(C#N)c(-c3ccccc3C)c2)c2cncn2C)cc1 (stereo not given) | 7.22
61 | Cc1ccccc1-c1cc(C(OCc2ccccc2[N+](=O)[O-])c2cncn2C)ccc1C#N (stereo not given) | 7.48
62 | Cn1cncc1C(OCc1ccc(C#N)c(NCC2CCOC2)n1)c1ccc(C#N)c(-c2ccccc2C(F)(F)F)c1 (stereo not given) | 8.11
63 | N#Cc1ccc(OCc2cncn2Cc2ccc(C#N)c(-c3cccc4ccccc34)c2)nc1 | 9.04
64 | Cc1ccccc1-c1cc(C(OCc2ccc(Br)cc2)c2cncn2C)ccc1C#N (stereo not given) | 7.92
65 | Cc1ccccc1-c1cc(C(OCc2ccc(F)cc2)c2cncn2C)ccc1C#N (stereo not given) | 7.49

Other lines, results leading:

Row | pIC50 | Structure (SMILES)
66 | 6.96 | N#Cc1ccc(Cn2cncc2CNC2CCN(C(=O)c3ccccc3)C2=O)cc1 (stereo not given)
67 | 8.89 | CC(C)(C)OC(=O)NCCCN(Cc1cncn1Cc1ccc(C#N)cc1)C1CCN(Cc2cccc(Cl)c2)C1=O (stereo not given)
68 | 7.19 | N#Cc1ccc(Cn2cncc2CNC2CCN(C(=O)c3ccccc3Cl)C2=O)cc1 (stereo not given)
69 | 6.56 | N#Cc1ccc(Cn2cncc2CCN[C@H]2CCN(Cc3ccccc3)C2=O)cc1
70 | 7.05 | N#Cc1ccc(Cn2cncc2CNC2CCN(C(=O)c3ccc(Cl)cc3)C2=O)cc1 (stereo not given)
71 | 8.12 | N#Cc1ccc(Cn2cncc2CN(CCCN)C2CCN(Cc3cccc(Cl)c3)C2=O)cc1 (stereo not given)
72 | 7.6 | N#Cc1ccc(Cn2cncc2CNC2CCN(Cc3ccc(Cl)cc3)C2=O)cc1 (stereo not given)
73 | 7.37 | N#Cc1ccc(Cn2cncc2CNC2CCN(c3ccncc3)C2=O)cc1 (stereo not given)
74 | 8.36 | N#Cc1ccc(Cn2cncc2COCc2cnc(C#N)cc2-c2cccc(Cl)c2)cc1
75 | 8.28 | N#Cc1ccc(Cn2cncc2CNC2CCN(Cc3ccccc3Cl)C2=O)cc1 (stereo not given)
76 | 6.6 | N#Cc1ccc(Cn2cncc2CCN[C@@H]2CCN(Cc3ccccc3)C2=O)cc1
77 | 7.57 | N#Cc1ccc(Cn2cncc2CNC2CCN(C(=O)c3cccc(Cl)c3)C2=O)cc1 (stereo not given)
78 | 6.55 | N#Cc1ccc(Cn2cncc2CCN[C@H]2CCN(c3ccccc3)C2=O)cc1
79 | 7.23 | CCCN(Cc1cncn1Cc1ccc(C#N)cc1)C1CCN(Cc2ccccc2)C1=O (stereo not given)
80 | 7.29 | N#Cc1ccc(Cn2cncc2CN(CCc2ccccc2)C2CCN(Cc3ccccc3)C2=O)cc1 (stereo not given)
81 | 6.92 | N#Cc1ccc(Cn2cncc2CCN[C@@H]2CCN(c3ccccc3)C2=O)cc1
82 | 6.42 | N#Cc1ccc(Cn2cncc2CCN[C@@H]2CCN(CCc3ccccc3)C2=O)cc1
83 | 6.61 | N#Cc1ccc(Cn2cncc2CCN[C@H]2CCN(CCc3ccccc3)C2=O)cc1
84 | 6.01 | N#Cc1ccc(Cn2cncc2CNC2CCN(C(=O)c3cccnc3N)C2=O)cc1 (stereo not given)
85 | 8.32 | CCSc1ncccc1C(=O)N1CCC(NCc2cncn2Cc2ccc(C#N)cc2)C1=O (stereo not given)
86 | 7.96 | N#Cc1ccc(Cn2cncc2CNC2CCN(C(=O)c3cccc4ccccc34)C2=O)cc1 (stereo not given)
87 | 6.69 | N#Cc1ccc(Cn2cncc2CN[C@@H]2CCN(c3ccccc3)C2=O)cc1
88 | 5.7 | N#Cc1ccc(Cn2cncc2CNC2CCN(C(=O)c3cccnc3)C2=O)cc1 (stereo not given)
89 | 5.17 | N#Cc1ccc(Cn2cncc2CNC2CCN(C(=O)c3cccnc3O)C2=O)cc1 (stereo not given)
90 | 7.17 | N#Cc1ccc(Cn2cncc2CN(Cc2ccccc2)C2CCN(Cc3ccccc3)C2=O)cc1 (stereo not given)
91 | 7.13 | N#Cc1ccc(Cn2cncc2CN[C@H]2CCN(c3ccccc3)C2=O)cc1
92 | 7.68 | N#Cc1ccc(Cn2cncc2CNC2CCN(c3ccc(Cl)cc3)C2=O)cc1 (stereo not given)
93 | 6.63 | N#Cc1ccc(Cn2cncc2CN[C@H]2CCN(CCc3ccccc3)C2=O)cc1
94 | 7.08 | CSc1ncccc1C(=O)N1CCC(NCc2cncn2Cc2ccc(C#N)cc2)C1=O (stereo not given)
95 | 7.38 | N#Cc1ccc(Cn2cncc2CN(CCCCc2ccccc2)C2CCN(Cc3ccccc3)C2=O)cc1 (stereo not given)
